In the supplement of paper PMC11451515:

Test system: P12-Ichikawa
Test: cell viability relative to DMSO control; higher = less cytotoxic
Conditions: 48 h
How it was run: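 Library compounds in DMSO were pin-dosed into 1536-well plates (5 μl) holding NOMO1 or SEM (500 cells/well) or P12-Ichikawa (1000 cells/well) leukemia cells, across an 11-point threefold series of 47 μM to 0.79 nM. Each cell line had been adapted for at least four passages in each medium. CellTiter-Glo One luminescence was read after 48 h at 37°C. Viability is the per-plate percentage relative to DMSO wells, with cell-free wells as background.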

[1] = HPLM + 10% dialyzed FBS, 0.000781 µM
[2] = HPLM + 10% dialyzed FBS, 0.00234 µM
[3] = HPLM + 10% dialyzed FBS, 0.00702 µM
[4] = HPLM + 10% dialyzed FBS, 0.0211 µM
[5] = HPLM + 10% dialyzed FBS, 0.0632 µM
[6] = HPLM + 10% dialyzed FBS, 0.19 µM
[7] = HPLM + 10% dialyzed FBS, 0.569 µM
[8] = HPLM + 10% dialyzed FBS, 1.71 µM
[9] = HPLM + 10% dialyzed FBS, 5.12 µM
[10] = HPLM + 10% dialyzed FBS, 15.4 µM
[11] = HPLM + 10% dialyzed FBS, 46.1 µM
[12] = RPMI 5 mM glucose + 10% FBS, 0.000781 µM
[13] = RPMI 5 mM glucose + 10% FBS, 0.00234 µM
[14] = RPMI 5 mM glucose + 10% FBS, 0.00702 µM
[15] = RPMI 5 mM glucose + 10% FBS, 0.0211 µM
[16] = RPMI 5 mM glucose + 10% FBS, 0.0632 µM
[17] = RPMI 5 mM glucose + 10% FBS, 0.19 µM
[18] = RPMI 5 mM glucose + 10% FBS, 0.569 µM
[19] = RPMI 5 mM glucose + 10% FBS, 1.71 µM
[20] = RPMI 5 mM glucose + 10% FBS, 5.12 µM
[21] = RPMI 5 mM glucose + 10% FBS, 15.4 µM
[22] = RPMI 5 mM glucose + 10% FBS, 46.1 µM
[23] = RPMI 5 mM glucose + 10% dialyzed FBS, 0.000781 µM
[24] = RPMI 5 mM glucose + 10% dialyzed FBS, 0.00234 µM
[25] = RPMI 5 mM glucose + 10% dialyzed FBS, 0.00702 µM
[26] = RPMI 5 mM glucose + 10% dialyzed FBS, 0.0211 µM
[27] = RPMI 5 mM glucose + 10% dialyzed FBS, 0.0632 µM
[28] = RPMI 5 mM glucose + 10% dialyzed FBS, 0.19 µM
[29] = RPMI 5 mM glucose + 10% dialyzed FBS, 0.569 µM
[30] = RPMI 5 mM glucose + 10% dialyzed FBS, 1.71 µM
[31] = RPMI 5 mM glucose + 10% dialyzed FBS, 5.12 µM
[32] = RPMI 5 mM glucose + 10% dialyzed FBS, 15.4 µM
[33] = RPMI 5 mM glucose + 10% dialyzed FBS, 46.1 µM

SMILES	cell viability [1] [%]	cell viability [2] [%]	cell viability [3] [%]	cell viability [4] [%]	cell viability [5] [%]	cell viability [6] [%]	cell viability [7] [%]	cell viability [8] [%]	cell viability [9] [%]	cell viability [10] [%]	cell viability [11] [%]	cell viability [12] [%]	cell viability [13] [%]	cell viability [14] [%]	cell viability [15] [%]	cell viability [16] [%]	cell viability [17] [%]	cell viability [18] [%]	cell viability [19] [%]	cell viability [20] [%]	cell viability [21] [%]	cell viability [22] [%]	cell viability [23] [%]	cell viability [24] [%]	cell viability [25] [%]	cell viability [26] [%]	cell viability [27] [%]	cell viability [28] [%]	cell viability [29] [%]	cell viability [30] [%]	cell viability [31] [%]	cell viability [32] [%]	cell viability [33] [%]
Clc1cc(Cl)cc(CNc2ncncc2-c2ccc3c(c2)OCO3)c1	93.7	93.6	92.6	97.4	100	90.3	93.8	97.5	92.6	94	10.4	97.6	92.7	91.3	93.8	96.3	93.1	86.6	94.2	89.9	86	47.2	87.6	96.6	102	96.1	95.1	91.7	92.7	102	97.9	99	61.1
CN(C)C(=O)c1ccc([S+](=O)([O-])c2ccc(NC(=O)[C@@](C)(O)C(F)(F)F)c(Cl)c2)cc1	105	111	107	113	116	117	114	117	100	100	43.3	98	98.1	107	108	115	110	97.9	101	93.9	80.9	62.6	106	110	102	118	114	117	118	106	103	72.5	63.5
Oc1ccc(/C=C/c2cc(O)cc(O)c2)cc1	111	110	110	114	105	111	115	103	105	108	41.4	116	118	116	118	118	112	117	106	111	101	58.6	108	111	111	112	113	116	121	108	103	84.5	36.9
CC(C)n1nc(-c2ccc3oc(N)nc3c2)c2c(N)ncnc21	95.5	91	86.3	79.7	78	75	68.7	67.2	66.7	59.9	44.5	74.4	71.5	64.1	61.5	52	54.4	51	46.8	41.4	37.2	31.3	82.5	78.9	67.1	59.1	61.7	53.8	45	47.3	41.5	35.6	32
Cn1cc(-c2ccc3nnc(C(F)(F)c4ccc5ncccc5c4)n3n2)cn1	116	117	117	116	113	115	109	108	101	95.8	82.9	114	117	117	124	109	113	113	106	107	101	81.7	119	112	120	118	113	119	118	112	101	102	85.6
[NH2][Pt]([NH2])([Cl])[Cl]	99.2	105	95.1	90.3	102	96	97.6	98.2	101	98.2	105	86.2	92.8	95.6	98	101	101	90.7	94.3	89	90.8	95.5	88.4	94.6	85.2	92	91.1	95.6	92.2	87.6	98.8	88.4	85.2
Cc1nccn1CC1CCc2c(c3ccccc3n2C)C1=O (stereo unspecified)	124	125	121	128	127	127	111	106	103	112	108	–	–	–	–	–	–	–	–	–	–	–	115	124	124	125	126	112	117	118	116	114	105
CC(C)(C)C(=O)Oc1ccc([S+](=O)([O-])Nc2ccccc2C(=O)NCC(=O)O)cc1	113	114	113	111	117	122	116	115	111	123	133	107	106	111	106	115	123	113	119	126	131	134	112	115	106	118	113	117	120	121	122	132	138
O=C(/C=C/c1c(C(=O)[O-])[nH]c2cc(Cl)cc(Cl)c12)Nc1ccccc1	106	111	105	103	116	114	115	116	113	111	109	98	105	107	106	108	110	112	120	104	107	106	103	99.5	107	110	107	108	103	107	66.2	108	113
O=C(/C=C/c1cccc([S+](=O)([O-])Nc2ccccc2)c1)NO	115	115	125	119	129	129	126	101	20.8	7.58	7.44	–	–	–	–	–	–	–	–	–	–	–	–	–	–	–	–	–	–	–	–	–	–
N=C(N)NC(=O)c1nc(Cl)c(N)nc1N	106	116	114	127	120	116	130	120	59.8	16.9	9.59	–	–	–	–	–	–	–	–	–	–	–	104	114	115	124	115	126	130	128	116	56.1	17.5
CCCCCCCc1ccc(CCc2cccc(O)c2C(=O)O)cc1	122	124	126	124	119	111	123	110	108	104	90.2	125	121	127	129	128	119	107	111	104	97.7	91.3	–	–	–	–	–	–	–	–	–	–	–
O=C1C[C@@H](c2ccc(O)cc2)Oc2cc(O)cc(O)c21	130	119	120	116	119	120	112	110	102	114	121	125	124	119	124	118	129	114	121	107	110	114	120	120	120	122	115	130	120	104	110	110	103
CCNC(=O)c1cc2c(-c3cc(OCCN4CCCC4)c(Cl)cc3Cl)nc(N)nc2s1	98.3	103	109	108	102	101	108	92.8	62.9	53.6	44.9	102	91.9	106	97	98.4	95.8	97.2	77.6	47.1	34	35.5	102	96.5	101	94.7	96	97.6	90.5	73.4	42	36.5	31.5
O=C(NC[C@H]1CN(c2ccc(N3CCOCC3=O)cc2)C(=O)O1)c1ccc(Cl)s1	104	111	112	115	113	119	122	114	16	13.4	12.4	–	–	–	–	–	–	–	–	–	–	–	103	119	115	125	126	123	134	132	51.1	37.8	19.3
COc1cc(C(C)=O)ccc1OCCCN1CCC(c2noc3cc(F)ccc23)CC1	118	115	119	127	124	127	129	124	129	125	120	–	–	–	–	–	–	–	–	–	–	–	–	–	–	–	–	–	–	–	–	–	–
CCN(CC)C(=S)SSC(=S)N(CC)CC	104	106	118	120	117	109	119	122	4.64	10.4	9.15	103	98.6	112	122	119	115	115	116	4.29	5.91	4.43	104	105	116	115	115	112	108	115	4	3.98	3.13
c1cc(CN2CCCNCCNCCCNCC2)ccc1CN1CCCNCCNCCCNCC1	84	90.4	96.5	10.2	101	104	109	102	102	116	117	80.6	90.8	95.2	12.9	101	97.6	101	103	99	111	106	86.3	93.9	92.9	24.9	94.9	99.6	101	101	103	96.5	103
